Series [1] has as its target T1, Rev-Erb alpha (Homo sapiens, UniProt P20393).
T1 sequence (P20393 284-614 limits assumed): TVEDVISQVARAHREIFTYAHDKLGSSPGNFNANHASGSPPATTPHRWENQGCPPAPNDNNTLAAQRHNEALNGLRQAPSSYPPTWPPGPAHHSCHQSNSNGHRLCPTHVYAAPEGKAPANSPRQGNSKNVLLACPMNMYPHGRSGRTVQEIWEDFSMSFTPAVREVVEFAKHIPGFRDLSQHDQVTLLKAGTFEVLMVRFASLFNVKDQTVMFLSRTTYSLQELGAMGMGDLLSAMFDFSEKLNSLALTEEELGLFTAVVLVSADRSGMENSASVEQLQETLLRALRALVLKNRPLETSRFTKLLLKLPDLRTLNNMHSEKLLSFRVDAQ
Put plainly: M2H (mammalian two-hybrid) cellular activation assay of Rev-Erb alpha. The format is cell-based. The following applies: for EC50: M2H assay, HEK293 cells, Gal4-Rev-Erb alpha / VP16-NCoR, luciferase reporter. A digest of the protocol:
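Six-point dose-response, 18 h, 37 °C, serum-free, in HEK293 cells carrying a Gal4-RE luciferase reporter with Gal4-Rev-Erb alpha or beta plus VP16-NCoR (corepressor interaction readout). EC50 and TOP activation (%) derived from luminescence across four experiments.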
Background: In a reporter assay the amount or activity of a reporter protein is the signal.

Structures can show the parent of a compound that is named as a salt.

In the case of `FC(F)(F)c1ccc(-c2nccs2)c(Oc2ccc3nnc(Cl)n3n2)c1` (as salt: potassium) [Cpd.4-105, 3-chloro-6-(2-(thiazol-2-yl)-5-(trifluoromethyl)phenoxy)-[1,2,4]triazolo[4,3-b]pyridazine], the melting point (usually the temperature, or range, at which the solid turns liquid) is 171 to 173 °C.
In turn, `FC(F)(F)c1ccc(-c2cscn2)c(Oc2ccc3nnc(Cl)n3n2)c1` (as salt: potassium) [Cpd.4-106, 3-chloro-6-(2-(thiazol-4-yl)-5-(trifluoromethyl)phenoxy)-[1,2,4]triazolo[4,3-b]pyridazine] gave a melting point of 191 to 192 °C.
`NCc1ccc(-c2ccccc2)c(Oc2ccc3nnc(Cl)n3n2)c1` (as salt: sodium) [Cpd.4-65, 3-chloro-6-(4-aminomethyl-biphenyl-2-yloxy)-[1,2,4]triazolo[4,3-b]pyridazine] came in with a melting point of 164.6 to 167.7 °C.
Molecule `OCc1ccc(Oc2ccc3nnc(Cl)n3n2)c(-c2ccccc2)c1` (as salt: sodium) [Cpd.4-66, 3-chloro-6-(5-hydroxymethyl-biphenyl-2-yloxy)-[1,2,4]triazolo[4,3-b]pyridazine] gave a melting point of 72 °C.
Regarding `COC(=O)c1ccc(Oc2ccc3nnc(Cl)n3n2)c(-c2ccccc2)c1` (as salt: sodium) [Cpd.4-69, 3-chloro-6-(5-methyloxycarbonyl-biphenyl-2-yloxy)-[1,2,4]triazolo[4,3-b]pyridazine], the melting point was 75.9 to 78.8 °C.
`NC(=O)c1cccc(-c2ccc(C(F)(F)F)cc2Oc2ccc3nnc(Cl)n3n2)c1` (as salt: sodium) [Cpd.4-72, 3-chloro-6-(4-trifluoromethyl-3′-aminocarbonyl-biphenyl-2-yloxy)-[1,2,4]triazolo[4,3-b]pyridazine]: the melting point is 217.7 to 220 °C.
`COc1cccc(-c2cc(F)ccc2Oc2ccc3nnc(Cl)n3n2)c1` (as salt: sodium) [Cpd.4-76, 3-chloro-6-(5-fluoro-3′ methoxy-biphenyl-2-yloxy)-[1,2,4]triazolo[4,3-b]pyridazine] yielded a melting point of 91.3 to 93.4 °C.
Molecule `COc1ccccc1-c1cccc(Oc2ccc3nnc(Cl)n3n2)c1` [Cpd.3-8, 6-(2′-methoxy-biphenyl-3-yloxy)-3-chloro-[1,2,4]triazolo[4,3-b]pyridazine] registered a melting point of 82.5 °C. Besides, the EC50 (in general, the concentration that produces a half-maximal response) in series [1] was 1 to 6 µM.
For `Fc1ccc(-c2cccc(Oc3ccc4nnc(Cl)n4n3)c2)cc1` [Cpd.3-9, 6-(4′-fluoro-biphenyl-3-yloxy)-3-chloro-[1,2,4]triazolo[4,3-b]pyridazine], in that order: 88 °C and 0.1 to 1 µM.
With `Fc1ccccc1-c1cccc(Oc2ccc3nnc(Cl)n3n2)c1` [Cpd.3-10, 6-(2′-fluoro-biphenyl-3-yloxy)-3-chloro-[1,2,4]triazolo[4,3-b]pyridazine], the melting point was determined as 128.6 °C. Further, in series [1], the EC50 was 0.1 to 1 µM.
Take `Clc1ccccc1-c1cccc(Oc2ccc3nnc(Cl)n3n2)c1` [Cpd.3-11, 6-(2′-chloro-biphenyl-3-yloxy)-3-chloro-[1,2,4]triazolo[4,3-b]pyridazine]: the melting point is 82.4 °C. Also, the EC50 in series [1] lay in the range of 1 to 6 µM.
In the same order, the values of `Clc1ccc(-c2cccc(Oc3ccc4nnc(Cl)n4n3)c2)cc1` [Cpd.3-12, 6-(4′-chloro-biphenyl-3-yloxy)-3-chloro-[1,2,4]triazolo[4,3-b]pyridazine] are 128 °C and 1 to 6 µM.
In the same order, the values of `Clc1cccc(-c2cccc(Oc3ccc4nnc(Cl)n4n3)c2)c1` [Cpd.3-13, 3-chloro-6-(3′-chlorobiphenyl-3-yloxy)-[1,2,4]triazolo[4,3-b]pyridazine] are 77.5 to 123.8 °C and 0.1 to 1 µM.
`COc1cccc(-c2cccc(Oc3ccc4nnc(Cl)n4n3)c2)c1` [Cpd.3-14, 3-chloro-6-(3′-methoxybiphenyl-3-yloxy)-[1,2,4]triazolo[4,3-b]pyridazine] registered a melting point of 91.46 °C. Also, in series [1], the EC50 fell in the range of 1 to 6 µM.
In turn, `COc1ccc(Oc2ccc3nnc(Cl)n3n2)c(-c2ccccc2)c1` [Cpd.4-14, 6-(5-methoxybiphenyl-2-yloxy)-3-chloro-[1,2,4]triazolo[4,3-b]pyridazine] showed a melting point of 164.6 °C. Further, the EC50 in series [1] lay in the range of 0.1 to 1 µM.
Molecule `Fc1ccc(Oc2ccc3nnc(Cl)n3n2)c(-c2ccccc2)c1` [Cpd.4-15, 6-(5-fluoro-biphenyl-2-yloxy)-3-chloro-[1,2,4]triazolo[4,3-b]pyridazine] displayed a melting point of 148.4 °C. This molecule returned an EC50 in series [1] of 0.1 to 1 µM.
Molecule `Fc1ccccc1-c1ccccc1Oc1ccc2nnc(Cl)n2n1` [Cpd.4-17, 6-(2′-fluoro-biphenyl-2-yloxy)-3-chloro-[1,2,4]triazolo[4,3-b]pyridazine] registered a melting point of 95.9 °C. In addition, the EC50 in series [1] was 0.1 to 1 µM.
For `Fc1ccc(-c2ccccc2Oc2ccc3nnc(Cl)n3n2)cc1F` [Cpd.4-20, 6-(3′,4′-difluoro-biphenyl-2-yloxy)-3-chloro-[1,2,4]triazolo[4,3-b]pyridazine], in that order: 129.3 °C and 0.1 to 1 µM.
With `Oc1cccc(-c2ccccc2Oc2ccc3nnc(Cl)n3n2)c1` [Cpd.4-21, 6-(3′-hydroxy-biphenyl-2-yloxy)-3-chloro-[1,2,4]triazolo[4,3-b]pyridazine], the melting point was 203.7 °C. The molecule also yielded an EC50 in series [1] of 0.1 to 1 µM.
For `COc1ccc(-c2ccccc2Oc2ccc3nnc(Cl)n3n2)cc1` [Cpd.4-22, 6-(4′-methoxy-biphenyl-2-yloxy)-3-chloro-[1,2,4]triazolo[4,3-b]pyridazine], in that order: 138.1 °C and 0.1 to 1 µM.
For `Cc1ccc(-c2ccccc2Oc2ccc3nnc(Cl)n3n2)cc1` [Cpd.4-23, 6-(4′-methyl-biphenyl-2-yloxy)-3-chloro-[1,2,4]triazolo[4,3-b]pyridazine], in that order: 166.9 to 173.4 °C and 0.1 to 1 µM.
In the same order, the values of `FC(F)(F)c1ccc(-c2ccccc2Oc2ccc3nnc(Cl)n3n2)cc1` [Cpd.4-24, 6-(4′-trifluoromethyl-biphenyl-2-yloxy)-3-chloro-[1,2,4]triazolo[4,3-b]pyridazine] are 185.8 °C and 0.1 to 1 µM.
`Clc1ccccc1-c1ccccc1Oc1ccc2nnc(Cl)n2n1` [Cpd.4-25, 6-(2′-chloro-biphenyl-2-yloxy)-3-chloro-[1,2,4]triazolo[4,3-b]pyridazine] gave a melting point of 81.9 °C. This molecule showed an EC50 in series [1] of less than 0.1 µM.
With `O=C(O)c1ccc(Oc2ccc3nnc(Cl)n3n2)c(-c2ccccc2)c1` [Cpd.4-59, 3-chloro-6-(5-hydroxycarbonyl-biphenyl-2-yloxy)-[1,2,4]triazolo[4,3-b]pyridazine], the melting point fell in the range of 266.9 to 267.7 °C.
The molecule `CNC(Cc1ccccc1)c1ccc(Oc2ccc3nnc(Cl)n3n2)c(-c2ccccc2)c1` (centres unmarked) [Cpd.4-158, 3-chloro-6-(5-(benzylmethylaminomethyl)biphenyl-2-yloxy)-[1,2,4]triazolo[4,3-b]pyridazine] yielded a melting point of 60.8 to 62.5 °C.
Still for that read-out and setting: the figure for `CC(NCCc1ccccc1)c1ccc(Oc2ccc3nnc(Cl)n3n2)c(-c2ccccc2)c1` (centres unmarked) [Cpd.4-165, 3-chloro-6-(5-(methylphenethylaminomethyl)biphenyl-2-yloxy)-[1,2,4]triazolo[4,3-b]pyridazine] is 114.3 to 117 °C; for `CC(NC1CCCCC1)c1ccc(Oc2ccc3nnc(Cl)n3n2)c(-c2ccccc2)c1` (centres unmarked) [Cpd.4-167, 3-chloro-6-(5-(methyl-cyclohexylaminomethyl)biphenyl-2-yloxy)-[1,2,4]triazolo[4,3-b]pyridazine] it is 50.6 °C; for `FC(F)(F)c1ccc(-c2ccccc2)c(Oc2cc(-c3ccccc3)c3nnc(Cl)n3n2)c1` [Cpd.5-4, 3-chloro-8-phenyl-6-(4-trifluoromethyl-biphenyl-2-yloxy)-[1,2,4]triazolo[4,3-b]pyridazine] it is 162 to 164 °C.
Regarding `FC(F)(F)c1ccc(-c2ccccc2)c(Oc2nn3c(Cl)nnc3cc2C2CC2)c1` [Cpd.5-14, 3-chloro-7-cyclopropyl-6-(4-trifluoromethyl-biphenyl-2-yloxy)-[1,2,4]triazolo[4,3-b]pyridazine], the melting point was 130 to 133 °C.
In turn, `CCc1ncncc1-c1ccc(C(F)(F)F)cc1Oc1nn2c(Cl)nnc2cc1C` [Cpd.5-52, 3-chloro-6-(2-(4-ethylpyrimidin-5-yl)-5-(trifluoromethyl)phenoxy)-7-methyl-[1,2,4]triazolo[4,3-b]pyridazine] gave a 50% effective concentration (EC50) in series [1] of 1 to 6 µM.
Turning to `CCc1ncncc1-c1ccc(C(F)(F)F)cc1Oc1cc(C)c2nnc(Cl)n2n1` [Cpd.5-53, 3-chloro-6-(2-(4-ethylpyrimidin-5-yl)-5-(trifluoromethyl)phenoxy)-8-methyl-[1,2,4]triazolo[4,3-b]pyridazine], the half-maximal effective concentration (EC50) in series [1] lay in the range of 1 to 6 µM.
With `Cc1nc(-c2ccc(Oc3nn4c(Cl)nnc4cc3C)c(-c3ccccc3)c2)no1` [Cpd.5-65, 3-chloro-7-methyl-6-(4-(5-methyl-1,2,4-oxadiazol-3-yl)-2-(phenyl)phenoxy)-[1,2,4]triazolo[4,3-b]pyridazine], in series [1], the EC50 lay in the range of 1 to 6 µM.
With `Fc1ccc(Oc2ccc3nnc(Cl)n3n2)c(-c2cccc(CN3CCCCC3)c2)c1` [hydrochloride], the Emax in series [1] (HEK293, read-out: TOP activation) was greater than 130%. The same molecule gave an EC50 in series [1] greater than 6 µM.

Source of the values: US9586963B2 (GENFIT, priority 2011, dated 2017).
